Assay results taken from article PMC10590056, “Design and synthesis of cabotegravir derivatives bearing 1,2,3-triazole and evaluation of anti-liver cancer activity” (Frontiers in Pharmacology, 2023).
“And” between values parts separate entries of the source, which are not always exact repeats. Equal entries are not always repeated.

How the values were obtained:
Format in all cases: cell-based
MCF-7 cells = experiment: MTT assay for cell proliferation, MCF-7; set-up: key to Inhibitory rate / Inhibition rate: inhibition rate = 1 - mean A490 sample/mean A490 control (fraction); details: for Inhibition rate (16μM), 48 h, MCF-7: preliminary screening, MCF-7, 16 μM, mean±SD, unit not given
Procedure: (§1) HepG2, HeLa, MCF-7, and KYSE-30 cells were grown in a humidified incubator at 37°C with 5% CO2 in DMEM supplemented with 10% fetal bovine serum (FBS), […] streptomycin, and 100 U/mL penicillin.
(§2) When HepG2 cells reached 80% confluence, they were treated with 1 mL of trypsin and resuspended at a density of 10^5 cells/mL. Then, 100 μL of cell suspension was seeded into each well of a 96-well plate and incubated in a humidified atmosphere. The different concentrations of KJ-5 and KJ-12 (0, 1, 2, 4, 8, 16, and 32 μM) were added to each well, and the cells were further incubated for 48 h. Afterward, 20 μL of the MTT solution (5 mg/mL) was added to each well, and incubation was continued for another 4 h. The supernatant was discarded, and 200 μL of the DMSO solution was added to each well. The plate was shaken for 10 min in the dark. The absorbance values were measured at 490 nm using an enzyme-linked detector. The cell inhibition rate (%) was calculated using the following formula: (1-Mean A490 sample/Mean A490 control) × 100%.

HepG2 cells = experiment: MTT assay for cell proliferation and cytotoxicity, HepG2; set-up: key to Inhibitory rate: inhibition rate = 1 - mean A490 sample/mean A490 control (fraction); details: for IC50: HepG2, 48 h, MTT; for Inhibitory rate / ODtreated/ODcontrol: HepG2, fraction, per experiment; for Inhibition rate (16μM), 48 h, HepG2: preliminary screening, HepG2, 16 μM, mean±SD, unit not given
Procedure: as §1, §2

KYSE-30 cells = experiment: MTT assay for cell proliferation, KYSE-30; set-up: key to Inhibitory rate: inhibition rate = 1 - mean A490 sample/mean A490 control (fraction); details: for Inhibitory rate: KYSE-30, given as fraction; for Inhibition rate (16μM), 48 h, KYSE-30: preliminary screening, KYSE-30, 16 μM, mean±SD, unit not given
Procedure: as §1, §2

HeLa cells = experiment: MTT assay for cell proliferation, HeLa; set-up: key to Inhibitory rate: inhibition rate = 1 - mean A490 sample/mean A490 control (fraction); details: Hela; for Inhibitory rate / ODtreated/ODcontrol: fraction, per experiment; for Inhibition rate (16μM), 48 h, Hela: preliminary screening, mean±SD, unit not given
Procedure: as §1, §2

[1] = MCF-7, fraction, per experiment
[2] = given as fraction, second of three experiments
[3] = given as fraction, third of three experiments
[4] = KYSE-30, first of three experiments
[5] = KYSE-30, second of three experiments
[6] = KYSE-30, third of three experiments

Structure (SMILES)	Inhibitory rate (MCF-7 cells; [1])	ODtreated/ODcontrol (MCF-7 cells; [1])	Inhibitory rate (MCF-7 cells; [2])	Inhibition rate (MCF-7 cells; [3])	Inhibition rate (16μM), 48 h, MCF-7 (MCF-7 cells)	ODtreated/ODcontrol (MCF-7 cells; second of three experiments)	ODtreated/ODcontrol (MCF-7 cells; third of three experiments)	IC50 (HepG2 cells) [µM]	Inhibitory rate (HepG2 cells)	ODtreated/ODcontrol (HepG2 cells)	Inhibition rate (16μM), 48 h, HepG2 (HepG2 cells)	ODtreated/ODcontrol (KYSE-30 cells; [4])	Inhibitory rate (KYSE-30 cells; first of three experiments)	Inhibitory rate (KYSE-30 cells; second of three experiments)	Inhibitory rate (KYSE-30 cells; third of three experiments)	ODtreated/ODcontrol (KYSE-30 cells; [5])	ODtreated/ODcontrol (KYSE-30 cells; [6])	Inhibition rate (16μM), 48 h, KYSE-30 (KYSE-30 cells)	Inhibitory rate (HeLa cells)	ODtreated/ODcontrol (HeLa cells)	also measured
COc1c2n(cc(C(=O)Nc3cccc(-c4cn(-c5ccccc5C)nn4)c3)c1=O)C[C@H]1OC[C@H](C)N1C2=O [KJ-3]	0.4113	0.5887	0.4254	0.3305	38.91±5.12	0.5746	0.6695	19.5 ± 0.5	0.4219 and 0.4728 and 0.4157	0.5781 and 0.5272 and 0.5843	43.68±3.13	0.6097	0.3903	0.2997	0.2805	0.7003	0.7195	32.35±5.86	0.3938 and 0.4133 and 0.3211	0.6062 and 0.5867 and 0.6789	Inhibition rate (16μM), 48 h, Hela (HeLa cells): 37.61±4.86
C[C@H]1CO[C@@H]2Cn3cc(C(=O)NCc4ccc(F)cc4F)c(=O)c(O)c3C(=O)N12 [Cabotegravir]	–	–	–	–	–	–	–	–	–	–	–	–	–	–	–	–	–	–	–	–	IC50 (HepG2 cells; Homo sapiens): > 50 µM
COc1c2n(cc(C(=O)Nc3cccc(-c4cn(-c5cc(C(F)(F)F)ccc5C(F)(F)F)nn4)c3)c1=O)CC1OCC(C)N1C2=O (stereo not shown) [KJ-11]	0.1458	0.8542	0.193	0.2016	18.01±3.00	0.807	0.7984	> 50	0.2636 and 0.2471 and 0.2291	0.7364 and 0.7529 and 0.7709	24.66±1.73	0.7351	0.2649	0.225	0.2137	0.775	0.7863	23.45±2.69	0.2491 and 0.2184 and 0.2018	0.7509 and 0.7816 and 0.7982	Inhibition rate (16μM), 48 h, Hela (HeLa cells): 22.31±2.4
CCc1ccccc1-n1cc(-c2cccc(NC(=O)c3cn4c(c(OC)c3=O)C(=O)N3[C@@H](C)CO[C@@H]3C4)c2)nn1 [KJ-4]	0.4901	0.5099	0.5179	0.4059	47.13±5.83	0.4821	0.5941	15.1 ± 0.28	0.5128 and 0.512 and 0.5016	0.4872 and 0.488 and 0.4984	50.88±0.63	0.492	0.508	0.3924	0.4136	0.6076	0.5864	43.8±6.15	0.4763 and 0.5136 and 0.3886	0.5237 and 0.4864 and 0.6114	Inhibition rate (16μM), 48 h, Hela (HeLa cells): 45.95±6.42
COc1c2n(cc(C(=O)Nc3cccc(-c4cn(-c5ccccc5OC(F)(F)F)nn4)c3)c1=O)C[C@H]1OC[C@H](C)N1C2=O [KJ-9]	0.7135	0.2865	0.7214	0.6147	68.32±5.95	0.2786	0.3853	5.06 ± 0.06	0.8207 and 0.8024 and 0.7986	0.1793 and 0.1976 and 0.2014	80.72±1.18	0.3517	0.6483	0.6765	0.5914	0.3235	0.4086	63.87±4.34	0.7654 and 0.7384 and 0.7732	0.2346 and 0.2616 and 0.2268	Inhibition rate (16μM), 48 h, Hela (HeLa cells): 75.9±1.83
COc1c2n(cc(C(=O)Nc3cccc(-c4cn(-c5ccccc5)nn4)c3)c1=O)CC1OCC(C)N1C2=O (stereo not shown) [KJ-16]	0.4071	0.5929	0.3917	0.4369	41.19±2.3	0.6083	0.5631	28.82 ± 0.1	0.4156 and 0.4284 and 0.3769	0.5844 and 0.5716 and 0.6231	40.70±2.68	0.634	0.366	0.4151	0.4118	0.5849	0.5882	39.76±2.74	0.3434 and 0.3651 and 0.3539	0.6566 and 0.6349 and 0.6461	Inhibition rate (16μM), 48 h, Hela (HeLa cells): 35.41±1.09
COc1c2n(cc(C(=O)Nc3cccc(-c4cn(-c5cccc(F)c5)nn4)c3)c1=O)C[C@H]1OC[C@H](C)N1C2=O [KJ-6]	0.5139	0.4861	0.536	0.519	52.3±1.16	0.464	0.481	7.63 ± 1.2	0.6124 and 0.6058 and 0.5961	0.3876 and 0.3942 and 0.4039	60.48±0.82	0.3817	0.6183	0.5213	0.4998	0.4787	0.5002	54.65±6.31	0.6049 and 0.5572 and 0.5217	0.3951 and 0.4428 and 0.4783	Inhibition rate (16μM), 48 h, Hela (HeLa cells): 56.13±4.18
